Measured values as given in US20110039905A1, “BENZIMIDAZOLE DERIVATIVES AS CALCIUM CHANNEL BLOCKERS” (priority 2008, published 2011).

Columns and labels:
[1] = target: T1, human Cav1.2 channel (Homo sapiens, UniProt Q13936); experiment: In vitro assay L channel (FLIPR, KCl-induced calcium fluorescence); format: cell-based; details: HEK293 cells expressing human Cav1.2 with β-2a and α2δ-1; 20 mM KCl depolarization; range stated for the group; read-out: IC50 (L channel antagonistic activity)
T1 construct: expressed in transfected cells; host or cells: HEK293
T1 sequence (Q13936 whole entry): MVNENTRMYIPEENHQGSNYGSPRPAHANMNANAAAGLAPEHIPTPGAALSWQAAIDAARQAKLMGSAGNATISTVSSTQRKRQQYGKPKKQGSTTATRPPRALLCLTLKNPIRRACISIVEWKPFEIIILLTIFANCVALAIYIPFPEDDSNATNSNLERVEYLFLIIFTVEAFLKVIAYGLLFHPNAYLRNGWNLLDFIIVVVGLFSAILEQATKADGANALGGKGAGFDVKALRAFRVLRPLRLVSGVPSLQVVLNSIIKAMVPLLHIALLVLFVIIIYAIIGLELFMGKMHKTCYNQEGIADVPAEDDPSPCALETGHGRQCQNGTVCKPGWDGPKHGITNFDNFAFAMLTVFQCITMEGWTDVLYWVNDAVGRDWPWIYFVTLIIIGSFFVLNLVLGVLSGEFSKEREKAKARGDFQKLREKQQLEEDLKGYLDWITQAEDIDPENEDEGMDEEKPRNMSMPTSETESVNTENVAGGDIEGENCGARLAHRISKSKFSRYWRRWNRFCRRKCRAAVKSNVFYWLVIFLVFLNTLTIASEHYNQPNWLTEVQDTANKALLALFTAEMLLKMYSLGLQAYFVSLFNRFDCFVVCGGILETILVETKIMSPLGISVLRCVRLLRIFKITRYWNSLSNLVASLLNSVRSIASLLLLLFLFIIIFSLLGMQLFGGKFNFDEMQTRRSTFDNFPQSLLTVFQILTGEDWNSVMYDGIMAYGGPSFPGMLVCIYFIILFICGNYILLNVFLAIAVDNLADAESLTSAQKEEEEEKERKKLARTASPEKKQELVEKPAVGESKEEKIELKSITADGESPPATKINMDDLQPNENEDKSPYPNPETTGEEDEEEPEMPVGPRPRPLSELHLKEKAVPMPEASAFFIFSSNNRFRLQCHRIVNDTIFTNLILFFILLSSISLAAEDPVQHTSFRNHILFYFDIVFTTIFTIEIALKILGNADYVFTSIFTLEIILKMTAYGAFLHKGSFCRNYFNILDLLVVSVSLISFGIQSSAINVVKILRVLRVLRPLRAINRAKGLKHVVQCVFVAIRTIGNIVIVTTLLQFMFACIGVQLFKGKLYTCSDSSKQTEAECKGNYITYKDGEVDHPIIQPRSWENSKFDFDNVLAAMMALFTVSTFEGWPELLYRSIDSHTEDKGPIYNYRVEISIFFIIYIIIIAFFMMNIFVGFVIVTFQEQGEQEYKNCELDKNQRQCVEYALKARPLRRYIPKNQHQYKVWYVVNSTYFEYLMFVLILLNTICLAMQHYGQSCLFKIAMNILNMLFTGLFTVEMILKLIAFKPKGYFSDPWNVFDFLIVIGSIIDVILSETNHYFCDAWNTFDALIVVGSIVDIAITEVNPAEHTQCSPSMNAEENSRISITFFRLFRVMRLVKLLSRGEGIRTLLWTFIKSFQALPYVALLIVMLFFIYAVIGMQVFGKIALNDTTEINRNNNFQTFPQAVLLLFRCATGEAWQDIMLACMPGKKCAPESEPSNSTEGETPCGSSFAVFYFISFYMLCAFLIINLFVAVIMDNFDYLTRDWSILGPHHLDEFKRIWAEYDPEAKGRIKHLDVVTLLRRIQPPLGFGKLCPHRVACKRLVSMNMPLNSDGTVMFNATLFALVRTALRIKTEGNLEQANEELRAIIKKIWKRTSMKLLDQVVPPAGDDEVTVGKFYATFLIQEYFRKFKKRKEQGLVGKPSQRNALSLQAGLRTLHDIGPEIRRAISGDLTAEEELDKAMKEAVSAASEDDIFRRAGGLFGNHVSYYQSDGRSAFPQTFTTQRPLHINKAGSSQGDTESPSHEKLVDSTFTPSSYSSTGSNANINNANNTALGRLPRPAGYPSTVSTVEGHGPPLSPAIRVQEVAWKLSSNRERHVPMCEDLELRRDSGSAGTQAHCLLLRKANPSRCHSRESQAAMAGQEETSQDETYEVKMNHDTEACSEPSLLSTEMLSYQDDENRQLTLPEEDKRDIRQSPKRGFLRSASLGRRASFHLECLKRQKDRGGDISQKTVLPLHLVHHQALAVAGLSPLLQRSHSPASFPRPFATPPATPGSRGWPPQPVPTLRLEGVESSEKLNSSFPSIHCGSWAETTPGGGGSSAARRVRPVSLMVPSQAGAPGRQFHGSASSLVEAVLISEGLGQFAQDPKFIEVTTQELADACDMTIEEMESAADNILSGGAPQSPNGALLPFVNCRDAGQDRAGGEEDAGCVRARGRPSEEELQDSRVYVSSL
Protocol: The L channel antagonistic activity (IC50 values) of the compounds of formula (I) is determined in accordance with the following experimental method.
Human embryonic kidney (HEK293) cells expressing the human Cav1.2 channel in addition to the auxiliary subunits β-2a and α2δ-1, are grown in culture medium (DMEM containing 10% heat-inactivated fetal calf serum (FCS), 100 U/ml penicillin, 100 μg/ml streptomycin, 100 μg/ml G418, 40 μg/ml zeocin and 100 μg/ml hygromycin). The cells are seeded at 20,000 cells/well into 384-well black clear bottom sterile plates (poly-L-lysine-coated, Becton Dickinson). The seeded plates are incubated overnight at 37° C. in 5% CO2. The KCl solution is prepared as 80 mM stock solution in assay buffer (HBSS containing 0.1% BSA, 20 mM HEPES, 0.375 g/l NaHCO3, adjusted to pH 7.4 with NaOH) for use in the assay at a final concentration of 20 mM. Antagonists are prepared as 10 mM stock solutions in DMSO, then diluted in 384w plates first in DMSO, then in assay buffer to obtain 3× stocks. On the day of the assay, 25 μl of staining buffer (HBSS containing 20 mM HEPES, 0.375 g/l NaHCO3, and 30 μM of the fluorescent calcium indicator fluo-4 AM (1 mM stock solution in DMSO, containing 10% pluronic) is added to each well of the seeded plate. The 384-well cell-plates are incubated for 60 min at 37° C. in 5% CO2 followed by washing with […] using assay buffer leaving […] of this buffer for equilibration at room temperature (30-60 min). Within the Fluorescent Imaging Plate Reader (FLIPR, Molecular Devices), antagonists are added to the plate in a volume of 25 μl/well, incubated for 3 min and finally 25 μl/well of KCl solution is added for cellular depolarization. Fluorescence is measured for each well at 2 second intervals for 8 minutes, and the area under the curve of each fluorescence peak is compared to the area of the fluorescence peak induced by 20 mM KCl with vehicle in place of antagonist. […]

[2] = tested on: isolated mouse hearts; experiment: Effect on isolated hearts according to the Langendorff method; details: read-out: EC50 (Langendorff experiment)
Protocol: The compounds were tested for their potential to reduce blood pressure and their effect on the contractility of the heart muscle. EC50 values on isolated mouse hearts were determined according to Literature (Doring H J., The isolated perfused heart according to Langendorff technique—function—application, Physiol. Bohemoslov. 1990, 39(6), 481-504; Kligfield P, Horner H, Brachfeld N., A model of graded ischemia in the isolated perfused rat heart, J. Appl. Physiol. 1976 June, 40(6), 1004-8).

[3] = tested on: human Cav3.1 Cav3.2 or Cav3.3 channel; experiment: In vitro assay T channel (FLIPR, Ca2+-induced calcium fluorescence); format: cell-based; details: HEK293 cells expressing human Cav3.1, Cav3.2 or Cav3.3; 10 mM Ca2+; subtype not specified in Table 1; read-out: IC50 (T channel antagonistic activity)
Protocol: The T channel antagonistic activity (IC50 values) of the compounds of formula (I) is determined in accordance with the following experimental method and data are shown in Table 1.
Human embryonic kidney (HEK293) cells expressing the human Cav3.1 Cav3.2 or Cav3.3 channel, respectively, are grown in culture medium (DMEM containing 10% heat-inactivated fetal calf serum (FCS), 100 U/ml penicillin, 100 μg/ml streptomycin and 1 mg/ml G418). The cells are seeded at 20,000 cells/well into 384-well black clear bottom sterile plates (poly-L-lysine-coated, Becton Dickinson). The seeded plates are incubated overnight at 37° C. in 5% CO2. […] On the day of the assay, 25 μl of staining buffer (HBSS containing 20 mM HEPES, 0.375 g/l NaHCO3 and 30 μM of the fluorescent calcium indicator fluo-4 AM (1 mM stock solution in DMSO, containing 10% pluronic) is added to each well of the seeded plate. The 384-well cell-plates are incubated for 60 min at 37° C. in 5% CO2 followed by washing with […] using HBSS containing 0.1% BSA, 20 mM HEPES, 0.375 g/l NaHCO3, leaving […] of this buffer for equilibration at room temperature (30-60 min). Within the Fluorescent Imaging Plate Reader (FLIPR, Molecular Devices), antagonists are added to the plate in a volume of […], incubated for 3 min, and finally […] of Ca^2+solution is added. […]

Row | EC50 [2] | IC50 [3] | SMILES | IC50 [1]
1 | 5 nM | – | COc1ccc(OC)c2[nH]c(CCCN(C)CC[C@]3(OC(=O)C(C)C)C[C@H]4CC[C@@H]3C=C4c3ccccc3)nc12 (racemic) [Example 1A, rac-Isobutyric acid (1R*,2R*,4R*)-2-(2-{[3-(4,7-dimethoxy-1H-benzoimidazol-2-yl)-propyl]-methyl-amino}-ethyl)-5-phenyl-bicyclo[2.2.2]oct-5-en-2-yl ester] | 156 to 439 nM
2 | – | – | COc1ccc(OC)c2[nH]c(CCCN(C)CC[C@]3(OC(=O)C(C)C)C[C@H]4CCC[C@@H]3C=C4c3ccccc3)nc12 (racemic) [Example 4A, rac-Isobutyric acid (1R*,5R*,6R*)-6-(2-{[3-(4,7-dimethoxy-1H-benzoimidazol-2-yl)-propyl]-methyl-amino}-ethyl)-8-phenyl-bicyclo[3.2.2]non-8-en-6-yl ester] | 156 to 439 nM
3 | – | 778 nM | COc1ccc(OC)c2[nH]c(CCCN(C)CCC3(OC(=O)C(C)C)CC4CCC3C=C4c3ccccc3)nc12 (single isomer, unassigned) [Example 2A, Isobutyric acid (1R,2R,4R)-2-(2-{[3-(4,7-dimethoxy-1H-benzoimidazol-2-yl)-propyl]-methyl-amino}-ethyl)-5-phenyl-bicyclo[2.2.2]oct-5-en-2-yl ester or isobutyric acid (1S,2S,4S)-2-(2-{[3-(4,7-dimethoxy-1H-benzoimidazol-2-yl)-propyl]-methyl-amino}-ethyl)-5-phenyl-bicyclo[2.2.2]oct-5-en-2-yl ester] | 156 to 439 nM
4 | – | 793 nM | COc1ccc(OC)c2[nH]c(CCCN(C)CCC3(OC(=O)C(C)C)CC4CCC3C=C4c3ccccc3)nc12 (single isomer, unassigned) [Example 3A, Isobutyric acid (1R,2R,4R)-2-(2-{[3-(4,7-dimethoxy-1H-benzoimidazol-2-yl)-propyl]-methyl-amino}-ethyl)-5-phenyl-bicyclo[2.2.2]oct-5-en-2-yl ester or isobutyric acid (1S,2S,4S)-2-(2-{[3-(4,7-dimethoxy-1H-benzoimidazol-2-yl)-propyl]-methyl-amino}-ethyl)-5-phenyl-bicyclo[2.2.2]oct-5-en-2-yl ester] | –
